# Measured values from patent US20110251135A1, “INHIBITORS OF PERITONEAL SEEDING OF CANCER CELLS” (University of Utah Research Foundation, priority 2008, published 2011).
# Experiments:
# [1] = athymic mice; BAY 11-7085 5 mg/kg IP, 4 doses total
# c-IAP-1 = test: Immunoblot of anti-apoptotic proteins in HT-29 cells; assay type: cell-based, human; details: transiently suspended or adherent HT-29; 20 μM for 8 hours
# Description: (§1) The data points represent the means of triplicate experiments and the error bars the standard errors of the means. […] The percent of apoptotic cells was then determined by the annexin V assay. […] The results shown are typical of two separate experiments. […] Immunoblots were performed for c-IAP-2, TRAF-1, TRAF-2, and FLIP. All lanes contain equal total protein.
# (§2) The cells were washed twice in ice cold PBS and then lysed in 4° C. lysis buffer (50 mM HEPES, 150 mM NaCl, 1.5 mM MgCl2, 1 mM EGTA, 100 mM NaF, 10 mM Na2PO4, 1 mM Na3VO4, 10% glycerol, 1% TRITON™ X-100, and 1 μg/mL each of aprotinin, leupeptin, chymostatin, pepstatin) and clarified at 12,000 rpm at 4° C. for 15 minutes. The lysates were normalized for total protein concentration. Aliquots of the lysates were then mixed 1:1 in sample buffer (125 mM Tris-HCl (pH 6.8), 20% glycerol, 4% sodium dodecyl sulfate, 2% β-mercaptoethanol, 10 μg/mL bromophenol blue) and boiled for 3 minutes. The samples were loaded onto SDS-PAGE gels (7.5 or 10% acrylamide). […]
# (§3) For immunodetection, the blocked blots were probed with primary antibody for 2 hours at 4° C. on a rocker. […] Alkaline phosphatase was detected by a colorimetric reaction using a BCIP (5-bromo-4-chloro-3-indolyl phosphate)/NBT (nitroblue tetrazolium) kit (Zymed).
# TRAF-1 and TRAF-2 = test: as above; assay type: cell-based, human; details: 20 μM for 8 hours
# Description: as §1, §2, §3
# JNK = JNK activity (phosphorylation of c-JUN) in colon and pancreatic cancer cell lines; assay type: cell-based, human
# HT-29 cells = test: Soft agar colony formation assay; assay type: cell-based, human; details: 10 μM for 6 days
# Description: (§4) DLD-1, HCT-116, and HT-29 cells were cultured for 6 days in soft agar in the presence of DMSO (control), 10 μM BAY 11-7082, or 10 μM BAY 11-7085. The data points represent the means of colony counts per field (20×) performed in 5 different regions of the culture dishes. The data shown represent a typical result of two separate experiments. FIG. 2B and FIG. 2C are graphs that show athymic mice received subcutaneous injections of HT-29 (FIG. B) or HCT-116 (FIG. C) cells, followed by […] of BAY 11-7085 (dark bars) or DMSO (white bars) intraperitoneally twice weekly. The bars represent the 25-75% ranges of the tumor volumes and the horizontal lines in the bars are the medians. Using the Kruskal-Wallace statistical test to compare the median tumor volumes between BAY 11-7085 and DMSO yielded a p-value of 0.005 for HT-29 cells but >0.05 for HCT-116 cells.
# (§5) Anchorage-independent cell growth is a hallmark of cancer cells and is a good correlation to tumorigencity in vivo. Therefore, the effects of BAY 11-7082 and BAY 11-7085 were examined on colon cancer cell growth using the soft agar colony formation assay.
# DLD-1 cells = test: Soft agar colony formation assay; assay type: cell-based, human; details: 10 μM for 6 days
# Description: as §4, §5
# HCT-116 cells = test: Soft agar colony formation assay; assay type: cell-based, human; details: 10 μM for 6 days
# Description: as §4, §5
# [2] = system: Su.86 pancreatic cancer cells; test: Athymic mouse model of peritoneal carcinomatosis (IP cancer cells, bioluminescent imaging, 9 days); assay type: in vivo; details: Su.86 IP; BAY 11-7085 5 mg/kg IP 24 h before, then every 3 days for 9 days
# Description: (§6) Twenty-four hours later, […] Su.86 or BxPC-3 pancreatic cancer cells, that were stably transfected with a firefly luciferase construct, were delivered IP. […] At the end of treatment, the mice received luciferin IP and sacrificed. The abdominal cavities were exposed and the mice placed immediately in a bioluminescent imager and photographed. The individual intraabdominal peritoneal tumors were counted. The subset of tumor implants limited to the liver surface was determined as well. […] The proportion of mice with peritoneal and/or hepatic tumor implants were compared using a test of proportions (*p<0.05).
# [3] = system: BxPc-3 pancreatic cancer cells; test: as above; assay type: in vivo; details: BxPc-3 IP; BAY 11-7085 5 mg/kg IP 24 h before, then every 3 days for 9 days
# Description: as §6
# [4] = system: DLD-1, HCT-116, HT-29 colon cancer cell lines; test: Cell proliferation assay (crystal violet, 96-well); assay type: cell-based, human; details: 10 μM, cultured up to 8 days
# Description: as §1
# For the cell proliferation assay, cells were dispersed and plated at 40,000 cells/well in 96-well dishes. At various days in culture, the cells were gently washed twice with 100 μL/well of ice-cold blocking buffer (1% radioimmunoassay grade BSA in PBS) and twice with 100 μL/well of ice-cold PBS. The cells were fixed for 10 min in 100% ice-cold methanol (100 μL/well), then allowed to air-dry. The cells were stained with 100 μL/well of 0.1% crystal violet in H20 for 10 minutes, then washed gently four times with dd H20 and four times with PBS. The plates were then air-dried completely. The stained cells were then solubilized in 1% sodium deoxycholate, and the plates read at 590 nm in a spectrophotometer. The absorption at 590 nm is proportional to the number of attached cells.
# [5] = system: HCT-116 cells transfected with human c-FLIP or empty vector; test: Annexin V-FITC assay, readhesion of HCT-116 cells transfected with human c-FLIP or empty vector; assay type: cell-based; details: readhesion 8 hours
# Description: Since HCT-116 colon cancer cells have relatively low levels of FLIP compared with other cancer cell lines (FIG. 13A), they were transfected with human c-FLIP. HCT-116 cells that were transfected with human c-FLIP or empty vector were transiently suspended and allowed to readhere in the presence of BAY 11-7085 for 8 hours. […] Thus, FLIP appears to be an important target of BAY 11-7085 and is able to inhibit BAY 11-7085-mediated apoptosis during colon cancer cell readhesion.
structure (smiles),measurement,setting,value
"CC(C)(C)c1ccc(S(=O)(=O)/C=C/C#N)cc1 [BAY 11-7085, (2E)-3-[4-(tertiarybutylphenyl)sulfonyl]-2-propenenitrile]",deaths / overt signs of toxicity,[1],None of the mice died or showed overt signs of toxicity
same,c-IAP-1 protein expression,c-IAP-1,No decrease in c-IAP-1 protein expression
same,TRAF-1 and TRAF-2 protein expression,TRAF-1 and TRAF-2,decrease in the protein expression of both TRAF-1 and TRAF-2 proteins
same,JNK activity (phosphorylation of c-JUN),JNK,readily induced JNK activity
same,anchorage-independent proliferation,HT-29 cells,significantly inhibited
same,anchorage-independent proliferation,DLD-1 cells,significantly inhibited
same,anchorage-independent proliferation,HCT-116 cells,but not HCT-116
same,% with Liver Implants,[2],0%
same,% with Peritoneal Implants,[2],33%
same,% with Liver Implants,[3],29%
same,% with Peritoneal Implants,[3],71%
same,cell proliferation,[4],greatly inhibited cell proliferation
same,apoptosis (Annexin V-FITC assay),[5]; HCT-116 over-expressing FLIP,much more resistant to BAY 11-7085
same,apoptosis (Annexin V-FITC assay),[5]; control (empty vector) HCT-116,induced apoptosis
